Source: US8729280B2, “Five crystal forms, methods of preparation, pharmaceutical compositions and applications of XLF-III-43” (Institute of Mataria Medica, Chinese Academy of Medical …, priority 2008, dated 2014)
One block for each compound: values may come before it.

Key:
[1] = Influences of different crystalline forms on blood drug levels in rats (pharmacokinetic study, HPLC of plasma); format: in vivo
Description: 1. Crystal Samples: crystalline form II and V of XLF-III-43, dispersant agent of crystalline form II (obtained by comminuting crystalline form II and V of XLF-III-43).
2. Methodology study of detecting blood drug level
(1) Experimental Conditions:
HPLC: waters 2690 chromatography system, 2487 UV detector, Milnicousamidem 32 chromatography management system. Column: 4.6×250 mm Spherisorb C18 5 μm; flow rate: 1.0 ml/min; column temperature: 25° C.; detection wavelength: 330 nm. After treated by solid phase extraction, plasma samples were directly injected and analyzed.
(4) Recovery experiment: extraction recoveries (greater than 75%) meet the requests that SFDA issued on methods of pharmacokinetic study.
(5) Sensitivity: minimum detectable amount was 2 ng/ml, the minimum limit of quantification was 5 ng/ml.

[2] = system: acute renal function injury in mice induced by Cisplatin; assay: Effects of different crystalline forms of XLF-III-43 on acute renal function injury in mice induced by Cisplatin (serum BUN and Scr); format: in vivo, Male Kunming mice; settings: for BUN / BUN reduction (%) / Scr / Scr reduction (%): dose 25.0 × 3 mg/kg
Description: Objective: To observe the effects of different crystal forms of XLF-III-43 on acute renal function injury in mice induced by Cisplatin
Reagents: crystalline form I, II and V of XLF-III-43, all were prepared into suspensions with 0.5% sodium carboxymethylcellulose. Positive control: Losartan potassium, ATIRA Hangzhou Merck Sharp & Dohme Pharmaceutics Company, lot number: S1241. Crude drug of Cisplatin (DDP): Supplied by Shandong Qilu Pharmaceutics Company.
Animal: Male Kunming mice weighing 16 to 22 g were purchased from Institute of Laboratory Animal Sciences, Chinese Academy of Medical Sciences (Type II, Certificate No: SCXK-Jing 2000-0006). All the mice were feeded in standard breeding boxes, 5 per box, kept these boxes dry and clean, ventilate and sterilize animal room at fixed time, lightening time: 8:00-20:00, room temperature: 20-26° C., humidity: 40-70%, forage: clean breeding forage, bought from Animal Center of Academy of Military Medical Sciences, Certificate No: SCXX-(army) 2002-001.
Serum biochemistry kit: Beijing Beihua Refined Chemical Limited-liability Company
Apparatus: WELLSCAN MK3 Scanner, Germent SIGMA3K 15 Centrifuge, TGL-16G Freezing Centrifuge, Shanghai Anting Scientific Instrument Factory, Votex, American Bohemia N.Y Company.
Animal grouping: According to body weights, male Kunming mice weighing 18 to 22 grams were randomly divided into […] groups: control group, Cisplatin group (model group), Losartan potassium group, groups of three crystal forms of XLF-III-43, n=8 for each group.
Modeling and administrating: XLF-III-43 were dissolved in 0.5% sodium carboxymethylcellulose, Losartan potassium and Cisplatin were dissolved in physiological saline. Since two days before giving Cisplatin by peritoneal injection, Losartan potassium group and groups of three crystal forms of XLF-III-43 were intraperitoneally administered respectively. Control animals received an equal volume of physiological saline.
Serum parameters detecting: Blood samples were collected from the orbital venous plexus at day 3, 5, and 7 after injecting Cisplatin. Serum BUN and Scr were detected by serum biochemistry kit.

[3] = one-time orally administered at 30 mg/kg, preliminary pharmacokinetic
[4] = 3 days after injecting Cisplatin
[5] = 5 days after injecting Cisplatin
[6] = 7 days after injecting Cisplatin

- time within which it could be detected in plasma ([1]; one-time orally administered at 30 mg/kg): ≤ 36 h
- detection in plasma at 48 h ([1]; one-time orally administered at 30 mg/kg, 48 h): could not be detected
- maximum plasma concentration Cmax [1, 3]: 2000 ng/mL
- peak time (Tmax) [1, 3]: 30 min
Compound: 3-(3′-carboxy-4′-hydroxy-anilino-carbo-)-6-nitro-7-hydroxy-8-methyl-coumarin [XLF-III-43]

Compound: 3-(3′-carboxy-4′-hydroxy-anilino-carbo-)-6-nitro-7-hydroxy-8-methyl-coumarin [crystalline form V of XLF-III-43]
- blood/plasma concentration ([1]; oral, FIG. 22, within a certain period of time): higher blood concentration than crystalline form II of XLF-III-43
- dose-effect relationship of renal function protective effect ([2]; Cisplatin model): good dose-effect relationship
- renal function protective effect (serum Scr and BUN) ([2]; Cisplatin model, compared among treated groups (crystalline form I, II, V, Losartan potassium)): best renal function protective effect

Compound: CCCCc1nc(Cl)c(CO)n1Cc1ccc(-c2ccccc2-c2nn[nH]n2)cc1 [Losartan]
- BUN [2, 4]: 30.58 ± 4.19 mg/dL
- BUN reduction (%) [2, 4]: −1.9%
- Scr [2, 4]: 1.41 ± 1.00 mg/dL
- Scr reduction (%) [2, 4]: 22.4%
- BUN [2, 5]: 31.75 ± 9.32 mg/dL
- BUN reduction (%) [2, 5]: 24.6%
- Scr [2, 5]: 1.16 ± 0.48 mg/dL
- Scr reduction (%) [2, 5]: 39.3%
- BUN [2, 6]: 30.32 ± 2.89 mg/dL
- BUN reduction (%) [2, 6]: 23.8%
- Scr [2, 6]: 1.74 ± 0.31 mg/dL
- Scr reduction (%) [2, 6]: 34.7%
